Assay results as given in patent publication US20160166556A1, “METHODS OF TREATING PULMONARY HYPERTENSION” (Gilead Sciences, Inc., priority 2014, published 2016).

System: ASK1 pathway (p38 phosphorylation) in the rat RV
Assay: Auranofin model of oxidative stress-induced ASK1 activation in the rat right ventricle (phospho-p38 Western blot)
Type: in vivo, Sprague-Dawley rats
Text: IP90 was used as a loading control.
In this study, the auranofin model of oxidative stress-induced ASK1 activation was used to determine the effects of ASK1 inhibitor in preventing or inhibiting oxidative stress-induced activation of the ASK1 pathway in the rat RV. ASK1 is normally bound and repressed by the thiol-containing antioxidant protein thioredoxin 1 (Trx1). […] When administered in vivo, auranofin results in ASK1-mediated phosphorylation of p38MAPK, which in turn promotes induction of cytokine/chemokine gene expression.
Rats were then challenged with a single intraperitoneal (ip) injection of auranofin at 30 mg/kg to induce oxidative stress. The levels of phosphorylated p38 in RV lysates were evaluated by Western blot analysis and normalized to IP90.

Compound	normalized level of phosphorylated p38 in RV (p-p38/IP90) (auranofin 30 mg/kg ip alone, mean±SEM, vehicle group 1.0±0.1)	auranofin-induced p38 phosphorylation in RV (single oral dose 0.3, 1, 3 or 10 mg/kg, then auranofin 30 mg/kg ip)
CC[PH](CC)(CC)[Au][S][C@@H]1O[C@H](COC(C)=O)[C@@H](OC(C)=O)[C@H](OC(C)=O)[C@H]1OC(C)=O [auranofin, 2,3,4,6-tetra-O-acetyl-1-thio-β-d-glucopyranosato-S-(triethylphosphine) gold]	2.0±0.2	–
Cc1cc(F)c(C(=O)Nc2cccc(-c3nncn3C(C)C)n2)cc1-n1cnc(C2CC2)c1 [Compound 3, 5-(4-cyclopropyl-1H-imidazol-1-yl)-2-fluoro-N-(6-(4-isopropyl-4H-1,2,4-triazol-3-yl)pyridin-2-yl)-4-methylbenzamide]	–	dose-dependent reduction
